Data reported in patent US7998681B2, “Diagnosis and therapy of antibody-mediated inflammatory auto-immune disorders” (Los Angeles Biomedical Research Institute at Harbor-UCLA …, priority 2000, dated 2011).

Test system: fibroblasts from patients with GD
Experiment: T lymphocyte migration (chemotaxis) assay of conditioned medium from treated fibroblasts, GD donors
Assay type: cell-based, human
Conditions: IgG 100 ng/ml, IL-1β 10 ng/ml, 24 hours
Experimental: The general migration assay is described in detail in Sciaky, D., et al., “Cultured human fibroblasts express constitutive IL-16 mRNA: Cytokine induction of active IL-16 protein synthesis through a caspase-3-dependent mechanism,” J. Immunol. 164(7):3806-14 (2000), hereby incorporated fully by reference. Briefly, fibroblasts from TAO and normal orbital tissue were seeded in 24-well arrays and grown to confluence. Monolayers were shifted containing 1% FBS to which nothing, purified normal or TAO IgG was added for various time intervals. Medium was collected and stored until use at −80° C. Chemotaxis was examined using Boyden chambers to which NWNA-T lymphocytes were added as the cellular targets. 50 μl cell suspension (10^7 cells/ml) were placed in the upper compartments of 48-well micro-chemotaxis chambers separated from 32 μl of serum samples by 8 μm micropore nitrocellulose filters (Neuroprobe). These were incubated at 37° C. in 5% CO2 environment for 3 hr. Filters were fixed, stained with hematoxylin, dehydrated, mounted on glass slides and viewed by light microscopy. Lymphocyte migration was quantified by counting the total number of cells migrating beyond a fixed depth. This depth was set to routinely identify a baseline migration under control conditions of 10-15 cells per high power field. Five such fields were counted in duplicate for each sample and the means±SD were calculated and expressed as percentage values of baseline cell migration in control buffer alone (100%). For each set of experimental conditions, at least three separate determinations were performed. Differences between experimental groups were analyzed by the Student t test using absolute values obtained for lymphocyte migration and statistical difference was accepted at the 95% level of confidence.
To assess specificity for IL-16, experiments were conducted by incubating samples of culture media for 15 min with neutralizing concentrations of anti-IL-16 MAB (clone 14. 1, 10 μg/ml), which blocks the chemotactic activity of 50 ng/ml of rIL-16. Anti-RANTES MAB (5 μg/ml) having an ND50 of 200 ng/ml rRANTES was used to neutralize RANTES as described in Sciaky D., Brazer, W., Center, D. M., Cruikshank, W. W. and Smith, T. J.: Cultured human fibroblasts express constitutive IL-16 mRNA: Cytokine induction of active IL-16 protein synthesis through a caspase-3-dependent mechanism. J. Immunol. 164(7):3806-14, 2000).
Referring to FIGS. 3A-3C, serum concentrations of IL-16 are elevated in patients with active TAO. Moreover, both IL-16 and PGHS-2 protein can be detected in TAO orbital tissue. The concentration of IL-16 is determined in sera from either patients with Graves' disease or normal controls. The sera are subjected to an ELISA assay, which utilizes an anti-IL-16 specific antibody. IL-16 is detected by standard immunohistochemical techniques in thin sections harvested from affected orbital connective tissues from a patient with severe Graves' ophthalmopathy. In a separate measurement of IL-16 dependent T-cell migration, a panel of 11 different fibroblast strains from patients with Graves' disease and 5 from individuals without known thyroid disease were challenged with Graves' IgG (100 ng/ml), normal IgG (100 ng/ml) or IL-1β (10 ng/ml) for 24 hours and assessed for T cell migration activity and IL-16 production (Table II). Graves' IgG induced IL-16 dependent cell migration in 10 of the Graves' fibroblast strains which derived from orbit and skin from various anatomic regions. Included were strains from the pretibial skin as well as the abdominal wall and the neck. The latter two sites rarely manifest Graves' disease. A substantial fraction of Graves' IgG provoked T cell migration activity in most of these strains was resistant to neutralization with anti-IL-16. Similarly, chemoattractants produced by RA fibroblasts can be measured by T-cell migration. […]

Substance: IL-1β: pro-inflammatory cytokine used to activate fibroblasts
- T Cell Migration (% control) (strain 1, Orbit): 194 +/− 11 % control
- T Cell Migration +anti-IL-16 (strain 1, Orbit): 149 +/− 8 % control
- T Cell Migration +anti-RANTES (strain 1, Orbit): 167 +/− 10 % control
- T Cell Migration (% control) (strain 2, Orbit): 195 ± 13 % control
- T Cell Migration +anti-IL-16 (strain 2, Orbit): 171 ± 7 % control
- T Cell Migration +anti-RANTES (strain 2, Orbit): 170 ± 8 % control
- T Cell Migration (% control) (strain 3, Abdominal skin): 195 +/− 13 % control
- T Cell Migration +anti-IL-16 (strain 3, Abdominal skin): 171 +/− 7 % control
- T Cell Migration +anti-RANTES (strain 3, Abdominal skin): 171 +/− 8 % control
- T Cell Migration (% control) (strain 4, Orbit): 236 ± 19 % control
- T Cell Migration +anti-IL-16 (strain 4, Orbit): 175 ± 12 % control
- T Cell Migration +anti-RANTES (strain 4, Orbit): 188 ± 9 % control
- T Cell Migration (% control) (strain 5, Abdominal skin): 144 ± 8 % control
- T Cell Migration +anti-IL-16 (strain 5, Abdominal skin): 128 ± 8 % control
- T Cell Migration +anti-RANTES (strain 5, Abdominal skin): 131 ± 5 % control
- T Cell Migration (% control) (strain 6, Neck skin): 211 ± 13 % control
- T Cell Migration +anti-IL-16 (strain 6, Neck skin): 148 ± 10 % control
- T Cell Migration +anti-RANTES (strain 6, Neck skin): 178 ± 12 % control
- T Cell Migration (% control) (strain 7, Pretibial skin): 236 ± 19 % control
- T Cell Migration +anti-IL-16 (strain 7, Pretibial skin): 175 ± 12 % control
- T Cell Migration +anti-RANTES (strain 7, Pretibial skin): 188 ± 9 % control
- T Cell Migration (% control) (strain 8, Pretibial skin): 204 ± 14 % control
- T Cell Migration +anti-IL-16 (strain 8, Pretibial skin): 164 ± 10 % control
- T Cell Migration +anti-RANTES (strain 8, Pretibial skin): 173 ± 8 % control
- T Cell Migration (% control) (strain 9, Orbit): 243 +/− 13 % control
- T Cell Migration +anti-IL-16 (strain 9, Orbit): 167 +/− 11 % control
- T Cell Migration +anti-RANTES (strain 9, Orbit): 189 +/− 10 % control
- T Cell Migration (% control) (strain 10, Orbit): 248 +/− 19 % control
- T Cell Migration +anti-IL-16 (strain 10, Orbit): 189 +/− 14 % control
- T Cell Migration +anti-RANTES (strain 10, Orbit): 206 +/− 12 % control
- T Cell Migration (% control) (strain 11, Orbit): 210 +/− 13 % control
- T Cell Migration +anti-IL-16 (strain 11, Orbit): 162 +/− 11 % control
- T Cell Migration +anti-RANTES (strain 11, Orbit): 183 +/− 6 % control
